According to ChEMBL document CHEMBL1201862, “PubChem BioAssay data set” (2004):
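Interpolation was linear, between the two tested concentrations surrounding the appropriate level; five concentrations were tested over 48 hours in 96-well plates. GI50 = concentration required for 50% inhibition of growth.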 Activity calls are given as the source filed them. Rule as the data show it: active = GI50 up to about 1.1 µM and inactive = higher. Peptide text beside a SMILES is read from it. * marks the point of attachment. X27 = Clc1c(Cl)c(Cl)c(O*)c(Cl)c1Cl; Boc = CC(C)(C)OC(=O)*; OBn = c1ccc(CO*)cc1; Bn = c1ccc(C*)cc1

Legend:
Experiment in all cases: inhibition of tumour cell growth, NCI panel, 48 h
PC-3 = test system: PC-3
HOP-92 = test system: HOP-92
SF-268 = test system: SF-268
HT-29 = test system: HT-29
UACC-62 = test system: UACC-62
SK-MEL-28 = test system: SK-MEL-28
LOX IMVI = test system: LOX IMVI
SW-620 = test system: SW-620
EKVX = test system: EKVX
SNB-75 = test system: SNB-75
KM12 = test system: KM12
NCI-H226 = test system: NCI-H226
NCI/ADR-RES = test system: NCI/ADR-RES
SF-539 = test system: SF-539
OVCAR-8 = test system: OVCAR-8
HOP-62 = test system: HOP-62
HCC 2998 = test system: HCC 2998
T47D = test system: T47D
MDA-MB-231 = test system: MDA-MB-231

Measured: GI50

COc1ccc(C2C3=C(CCCC3=O)N(c3ccccc3)C3=C2C(=O)CCC3)cc1
inactive: PC-3 > 100 µM | HOP-92 29 µM | SF-268 79.4 µM | HT-29 > 100 µM | UACC-62 87.1 µM | SK-MEL-28 > 100 µM | LOX IMVI > 100 µM | SW-620 > 100 µM | EKVX > 100 µM | SNB-75 28.2 µM | KM12 > 100 µM | NCI-H226 21.6 µM | NCI/ADR-RES > 100 µM | SF-539 > 100 µM

COC(=O)c1nc(-c2nc(CCNC(=O)OC(C)(C)C)sc2Cl)sc1Cl
inactive: PC-3 28.1 µM | HOP-92 6.62 µM | SF-268 74.6 µM | HT-29 > 100 µM | UACC-62 35.3 µM | OVCAR-8 35.5 µM | SK-MEL-28 70.1 µM | HOP-62 32.6 µM | SW-620 > 100 µM | EKVX > 100 µM | SNB-75 23.1 µM | HCC 2998 > 100 µM | KM12 55.3 µM | NCI-H226 33.3 µM | NCI/ADR-RES 32.2 µM | SF-539 > 100 µM

C[C@@H]1CC[C@H]2[C@H](C)C(OC3O[C@@H]4O[C@@]5(C)CC[C@H]6[C@H](C)CC[C@@H]([C@@H]3C)[C@@]46O5)O[C@@H]3O[C@@]4(C)CC[C@@H]1[C@]32O4 (some centres undefined)
inactive: PC-3 > 100 µM | SF-268 > 100 µM | HT-29 > 100 µM | UACC-62 > 100 µM | OVCAR-8 > 100 µM | SK-MEL-28 > 100 µM | LOX IMVI > 100 µM | T47D > 100 µM | MDA-MB-231 > 100 µM | HOP-62 > 100 µM | SW-620 > 100 µM | EKVX > 100 µM | SNB-75 > 100 µM | HCC 2998 > 100 µM | KM12 > 100 µM | NCI-H226 > 100 µM | SF-539 > 100 µM

C=C(CCOC)CCC1CCCCC(CN(C)C)C1=O (centres undefined)
inactive: PC-3 > 100 µM | SF-268 > 100 µM | HT-29 > 100 µM | UACC-62 > 100 µM | OVCAR-8 > 100 µM | SK-MEL-28 > 100 µM | LOX IMVI > 100 µM | T47D > 100 µM | MDA-MB-231 > 100 µM | HOP-62 > 100 µM | SW-620 > 100 µM | EKVX > 100 µM | SNB-75 > 100 µM | HCC 2998 > 100 µM | KM12 > 100 µM | NCI-H226 > 100 µM | NCI/ADR-RES > 100 µM

O=C1CC(O)c2c1csc2Br (centres undefined)
inactive: PC-3 32.4 µM | SF-268 27.4 µM | HT-29 33.3 µM | UACC-62 22.7 µM | OVCAR-8 23.3 µM | SK-MEL-28 17.8 µM | LOX IMVI 16.4 µM | T47D 23.7 µM | MDA-MB-231 23.8 µM | HOP-62 73.6 µM | SW-620 15.3 µM | EKVX 48.2 µM | SNB-75 26.4 µM | HCC 2998 19.2 µM | KM12 18.7 µM | NCI/ADR-RES 20.7 µM

CC(NC(=O)/C(=C/c1ccccc1O)NC(=O)c1ccccc1)C(=O)O (centres undefined)
inactive: HOP-92 22.2 µM | SF-268 15.8 µM | HT-29 73.5 µM | UACC-62 26 µM | OVCAR-8 15.7 µM | SK-MEL-28 > 100 µM | LOX IMVI 33.2 µM | T47D 13.2 µM | MDA-MB-231 22 µM | SW-620 > 100 µM | EKVX 18.8 µM | SNB-75 15.4 µM | HCC 2998 9.23 µM | KM12 16.8 µM | NCI-H226 14 µM | NCI/ADR-RES 12.7 µM | SF-539 18.1 µM

O=C1CCCC1CC(CN1CCOCC1)Sc1nnnn1-c1ccccc1 (centres undefined)
inactive: PC-3 > 100 µM | HOP-92 > 100 µM | HT-29 31 µM | UACC-62 > 100 µM | OVCAR-8 > 100 µM | SK-MEL-28 > 100 µM | LOX IMVI > 100 µM | MDA-MB-231 72.3 µM | HOP-62 > 100 µM | SW-620 > 100 µM | EKVX 28.9 µM | SNB-75 21.3 µM | HCC 2998 > 100 µM | KM12 > 100 µM | NCI-H226 > 100 µM | NCI/ADR-RES > 100 µM | SF-539 > 100 µM

COc1ccc(C2OC(N)=C(C#N)C3=C2CCCC3C)cc1OC (centres undefined)
inactive: PC-3 > 100 µM | SF-268 > 100 µM | HT-29 > 100 µM | UACC-62 > 100 µM | OVCAR-8 > 100 µM | SK-MEL-28 > 100 µM | LOX IMVI > 100 µM | T47D > 100 µM | MDA-MB-231 > 100 µM | SW-620 > 100 µM | EKVX > 100 µM | SNB-75 23.8 µM | KM12 > 100 µM | NCI-H226 > 100 µM | NCI/ADR-RES > 100 µM | SF-539 > 100 µM

CCCCCCc1cc2cc(C(=O)Nc3ccccc3F)c(=N)oc2cc1O
inactive: PC-3 11.2 µM | SF-268 12.4 µM | HT-29 24.7 µM | UACC-62 6.55 µM | OVCAR-8 2.89 µM | SK-MEL-28 7.69 µM | LOX IMVI 5.24 µM | T47D 3.51 µM | HOP-62 14.3 µM | SW-620 12.6 µM | EKVX 10.4 µM | HCC 2998 18.7 µM | KM12 4.01 µM | NCI/ADR-RES 2.64 µM | SF-539 12.6 µM

CC(C)CC(NC(=O)C(CCC(=O)OCc1ccccc1)NC(=O)OC(C)(C)C)C(=O)NC(COCc1ccccc1)C(=O)NC(Cc1ccccc1)C(=O)Oc1c(Cl)c(Cl)c(Cl)c(Cl)c1Cl (centres undefined) (Boc-E(OBn)LS(Bn)F-X27; configuration not given here)
inactive: PC-3 > 100 µM | HOP-92 16.5 µM | SF-268 35.3 µM | HT-29 35.6 µM | UACC-62 20.7 µM | OVCAR-8 27 µM | SK-MEL-28 19.2 µM | LOX IMVI > 100 µM | MDA-MB-231 15.6 µM | SW-620 > 100 µM | EKVX 16 µM | SNB-75 40.2 µM | KM12 20.4 µM | NCI/ADR-RES 27.4 µM

CCOc1ccc(N/C(=C(/C(Cl)=C(/Cl)N(CC)CC)[N+](=O)[O-])n2nnc3ccccc32)cc1
inactive: PC-3 17.5 µM | SF-268 15.7 µM | HT-29 26.4 µM | UACC-62 13.1 µM | OVCAR-8 16.2 µM | SK-MEL-28 20 µM | T47D 14.2 µM | MDA-MB-231 10.7 µM | HOP-62 30.7 µM | SW-620 14.2 µM | EKVX 23.3 µM | SNB-75 20.3 µM | HCC 2998 > 100 µM | KM12 12 µM | NCI-H226 37.8 µM | NCI/ADR-RES 21.1 µM | SF-539 23.2 µM

COc1ccc(-c2c(C(C)=O)c(-c3ccccc3)n(C3OC(COC(C)=O)C(OC(C)=O)C(OC(C)=O)C3OC(C)=O)c(=S)c2C#N)cc1 (centres undefined)
inactive: HOP-92 19.2 µM | SF-268 > 100 µM | HT-29 > 100 µM | UACC-62 > 100 µM | OVCAR-8 > 100 µM | SK-MEL-28 > 100 µM | LOX IMVI > 100 µM | T47D > 100 µM | MDA-MB-231 > 100 µM | HOP-62 > 100 µM | SW-620 > 100 µM | EKVX > 100 µM | SNB-75 80.9 µM | HCC 2998 > 100 µM | KM12 > 100 µM | NCI-H226 > 100 µM | NCI/ADR-RES > 100 µM | SF-539 > 100 µM
